Experimental data as given in ChEMBL document CHEMBL4622916, “Synthesis of tetracyclic oxindoles and evaluation of their α-glucosidase inhibitory and glucose consumption-promoting activity” (Bioorg Med Chem Lett, 2020).
Active and inactive are the calls of the source. The calls are words filed in the database; no cut-off is given here.

tested on: HepG2; assay: Increase in glucose consumption in human HepG2 cells at 1 to 5 uM; format: functional, cell-based

SMILES | Activity
COc1ccc(CN2C(=O)C3(c4cc(Br)ccc42)[C@H](C(=O)/C=C/c2ccc(N(C)C)cc2)[C@@H](c2ccc(N(C)C)cc2)[C@@H]2CSCN23)cc1 (stereo not given in full) | Active

target: not listed separately; assay: Inhibition of alpha-glucosidase (unknown origin); parameters: species or system Homo sapiens

SMILES | IC50 [µM]
Cc1ccc(/C=C/C(=O)[C@@H]2[C@@H](c3ccc(C)cc3)[C@@H]3CSCN3C23C(=O)Nc2ccccc23)cc1 (stereo not given in full) | 18.9
COc1ccc(/C=C/C(=O)[C@@H]2[C@@H](c3ccc(OC)c(OC)c3)[C@@H]3CSCN3C23C(=O)Nc2ccccc23)cc1OC (stereo not given in full) | > 50
CN(C)c1ccc(/C=C/C(=O)[C@@H]2[C@@H](c3ccc(N(C)C)cc3)[C@@H]3CSCN3C23C(=O)Nc2ccccc23)cc1 (stereo not given in full) | 4.81
O=C(/C=C/c1ccc(Cl)cc1)[C@@H]1[C@@H](c2ccc(Cl)cc2)[C@@H]2CSCN2C12C(=O)Nc1ccccc12 (stereo not given in full) | 7.49
O=C(/C=C/c1ccco1)[C@@H]1[C@@H](c2ccco2)[C@@H]2CSCN2C12C(=O)Nc1ccccc12 (stereo not given in full) | > 50
O=C(/C=C/c1ccccc1)[C@@H]1[C@@H](c2ccccc2)[C@@H]2CSCN2C12C(=O)Nc1ccccc12 (stereo not given in full) | 16.1
COC(=O)/C=C/c1ccc2c(c1)C1(C(=O)N2Cc2ccc(OC)cc2)[C@H](C(=O)/C=C/c2ccc(Cl)cc2)[C@@H](c2ccc(Cl)cc2)[C@@H]2CSCN21 (stereo not given in full) | 4.73
COC(=O)/C=C/c1ccc2c(c1)C1(C(=O)N2Cc2ccc(OC)cc2)[C@H](C(=O)/C=C/c2ccc(OC)cc2)[C@@H](c2ccc(OC)cc2)[C@@H]2CSCN21 (stereo not given in full) | 3.81
COc1ccc(CN2C(=O)C3(c4cc(Br)ccc42)[C@H](C(=O)/C=C/c2ccccc2Br)[C@@H](c2ccccc2Br)[C@@H]2CSCN23)cc1 (stereo not given in full) | 4.09
O=C(/C=C/c1ccccc1Br)[C@@H]1[C@@H](c2ccccc2Br)[C@@H]2CSCN2C12C(=O)Nc1ccccc12 (stereo not given in full) | 4.47
O=C(/C=C/c1ccccc1Cl)[C@@H]1[C@@H](c2ccccc2Cl)[C@@H]2CSCN2C12C(=O)Nc1ccccc12 (stereo not given in full) | 9.8
O=C(/C=C/c1ccc(Cl)cc1Cl)[C@@H]1[C@@H](c2ccc(Cl)cc2Cl)[C@@H]2CSCN2C12C(=O)Nc1ccccc12 (stereo not given in full) | 7.4
O=C(/C=C/c1ccc(Cl)cc1)[C@@H]1[C@@H](c2ccc(Cl)cc2)[C@@H]2CSCN2C12C(=O)Nc1ccc(Br)cc12 (stereo not given in full) | 4.9
COC(=O)/C=C/c1ccc2c(c1)C1(C(=O)N2Cc2ccc(OC)cc2)[C@H](C(=O)/C=C/c2ccc(Cl)cc2Cl)[C@@H](c2ccc(Cl)cc2Cl)[C@@H]2CSCN21 (stereo not given in full) | 4.49
COc1ccc(CN2C(=O)C3(c4cc(Br)ccc42)[C@H](C(=O)/C=C/c2ccc(N(C)C)cc2)[C@@H](c2ccc(N(C)C)cc2)[C@@H]2CSCN23)cc1 (stereo not given in full) | 3.64

The remaining lines, values ahead:

IC50 [µM] | SMILES
4.14 | COC(=O)/C=C/c1ccc2c(c1)C1(C(=O)N2Cc2ccc(OC)cc2)[C@H](C(=O)/C=C/c2ccc(-c3ccccc3)cc2)[C@@H](c2ccc(-c3ccccc3)cc2)[C@@H]2CSCN21 (stereo not given in full)
8.33 | COC(=O)/C=C/c1ccc2c(c1)C1(C(=O)N2Cc2ccc(OC)cc2)[C@H](C(=O)/C=C/c2ccccc2)[C@@H](c2ccccc2)[C@@H]2CSCN21 (stereo not given in full)
7.43 | CCN(CC)c1ccc(/C=C/C(=O)[C@@H]2[C@@H](c3ccc(N(CC)CC)cc3)[C@@H]3CSCN3C23C(=O)N(Cc2ccc(OC)cc2)c2ccc(/C=C/C(=O)OC)cc23)cc1 (stereo not given in full)
8.44 | COC(=O)/C=C/c1ccc2c(c1)C1(C(=O)N2Cc2ccc(OC)cc2)[C@H](C(=O)/C=C/c2ccc(Br)cc2)[C@@H](c2ccc(Br)cc2)[C@@H]2CSCN21 (stereo not given in full)
4.47 | COC(=O)/C=C/c1ccc2c(c1)C1(C(=O)N2Cc2ccc(OC)cc2)[C@H](C(=O)/C=C/c2ccc(F)cc2)[C@@H](c2ccc(F)cc2)[C@@H]2CSCN21 (stereo not given in full)
3.9 | COc1ccc(CN2C(=O)C3(c4cc(Br)ccc42)[C@H](C(=O)/C=C/c2ccc(Cl)cc2)[C@@H](c2ccc(Cl)cc2)[C@@H]2CSCN23)cc1 (stereo not given in full)
4.68 | COC(=O)/C=C/c1ccc2c(c1)C1(C(=O)N2Cc2ccc(OC)cc2)[C@H](C(=O)/C=C/c2ccccc2Br)[C@@H](c2ccccc2Br)[C@@H]2CSCN21 (stereo not given in full)
39.9 | COc1ccc(CN2C(=O)C(=O)c3cc(Br)ccc32)cc1
9.47 | COC(=O)/C=C/c1ccc2c(c1)C1(C(=O)N2Cc2ccc(OC)cc2)[C@H](C(=O)/C=C/c2ccc(N(C)C)cc2)[C@@H](c2ccc(N(C)C)cc2)[C@@H]2CSCN21 (stereo not given in full)
14.1 | COc1ccc(CN2C(=O)C3(c4cc(Br)ccc42)[C@H](C(=O)/C=C/c2ccc(Cl)cc2Cl)[C@@H](c2ccc(Cl)cc2Cl)[C@@H]2CSCN23)cc1 (stereo not given in full)
50.3 | C[C@H]1O[C@H](O[C@H]2[C@H](O)[C@@H](O)[C@@H](O[C@H]3[C@H](O)[C@@H](O)C(O)O[C@@H]3CO)O[C@@H]2CO)[C@H](O)[C@@H](O)[C@@H]1N[C@H]1C=C(CO)[C@@H](O)[C@H](O)[C@H]1O (stereo not given in full) [ACARBOSE]

tested on: HepG2; assay: Cytotoxicity against human HepG2 cells; format: cell-based

SMILES | Activity
COc1ccc(CN2C(=O)C3(c4cc(Br)ccc42)[C@H](C(=O)/C=C/c2ccc(N(C)C)cc2)[C@@H](c2ccc(N(C)C)cc2)[C@@H]2CSCN23)cc1 (stereo not given in full) | Non-Toxic

organism: Homo sapiens; assay: Potency index, ratio of IC50 of acarbose to IC50 of compound for inhibition of alpha-glucosidase (unknown origin)

Ratio IC50 | SMILES
14 | COc1ccc(CN2C(=O)C3(c4cc(Br)ccc42)[C@H](C(=O)/C=C/c2ccc(N(C)C)cc2)[C@@H](c2ccc(N(C)C)cc2)[C@@H]2CSCN23)cc1 (stereo not given in full)

organism: Homo sapiens; assay: Reversible competitive inhibition of alpha-glucosidase (unknown origin) by Lineweaver-Burk plot analysis

inhibition | SMILES
Active | COc1ccc(CN2C(=O)C3(c4cc(Br)ccc42)[C@H](C(=O)/C=C/c2ccc(N(C)C)cc2)[C@@H](c2ccc(N(C)C)cc2)[C@@H]2CSCN23)cc1 (stereo not given in full)
